Measured values published in the NIST ThermoML archive (doi:10.1016/j.tca.2017.09.024).
± gives the expanded uncertainty stated by the source.

Details: Crystal; DTA

With `Fc1ccccc1` [fluorobenzene] the Normal melting temperature was -41.9 ± 2 °C.
`c1ccccc1` [benzene] gave a Normal melting temperature of 5.6 ± 2 °C.
